Measurements from patent US20120277197A1, “TIGECYCLINE FORMULATIONS” (WYETH, priority 2008, published 2012).

Legend:
[1] = simple oral immediate release prototypes, animals; cited from earlier work
[2] = Effect of pH on stability of tigecycline 0.50 mg/ml in Normal Saline, in a flask at 25° C.; format: physicochemical
Description: The effect of pH on the stability of tigecycline formulations having a concentration of 0.50 mg tigecycline/ml in a Normal Saline solution was studied by analyzing the variation of tigecycline content, total impurity content, and the concentration of tigecycline epimer at different pH values, either in the presence of air or under an atmosphere having an oxygen content of less than 1 ppm, in a flask at 25° C.

[3] = pH 3, 0 h, in the presence of air
[4] = pH 3, 8 h, in the presence of air
[5] = pH 3, 24 h, in the presence of air
[6] = pH 3, 72 h, in the presence of air
[7] = pH 3.5, 0 h, in the presence of air
[8] = pH 3.5, 8 h, in the presence of air
[9] = pH 3.5, 24 h, in the presence of air
[10] = pH 3.5, 72 h, in the presence of air
[11] = pH 4.0, 0 h, in the presence of air
[12] = pH 4.0, 24 h, in the presence of air
[13] = pH 4.0, 72 h, in the presence of air
[14] = pH 4.5, 0 h, in the presence of air
[15] = pH 4.5, 8 h, in the presence of air
[16] = pH 4.5, 24 h, in the presence of air
[17] = pH 4.5, 72 h, in the presence of air
[18] = pH 5.0, 0 h, in the presence of air
[19] = pH 5.0, 24 h, in the presence of air
[20] = pH 5.0, 72 h, in the presence of air
[21] = pH 5.5, 0 h, in the presence of air
[22] = pH 5.5, 24 h, in the presence of air
[23] = pH 5.5, 72 h, in the presence of air
[24] = pH 6.5, 0 h, in the presence of air
[25] = pH 6.5, 8 h, in the presence of air
[26] = pH 6.5, 24 h, in the presence of air
[27] = pH 6.5, 72 h, in the presence of air
[28] = pH 8.0, 0 h, in the presence of air
[29] = pH 8.0, 8 h, in the presence of air
[30] = pH 8.0, 24 h, in the presence of air
[31] = pH 8.0, 72 h, in the presence of air

## CN(C)c1cc(NC(=O)CNC(C)(C)C)c(O)c2c1C[C@H]1C[C@H]3[C@H](N(C)C)C(O)=C(C(N)=O)C(=O)[C@@]3(O)C(O)=C1C2=O [tigecycline, Tigecycline]
[1]
  bioavailability: poor bioavailability
[2]; in the presence of air
  pH at which the solution is most stable, based on total impurity content and tigecycline content: 4.5-5.0
[2]; oxygen <1 ppm
  pH at which the solution is most stable: 4.5-6.0
[2]; [3]
  Total impurity content as a % of initial weight of tigecycline: 0.36%
  Total tigecycline epimer content as a % of initial weight of tigecycline: 0.19%
[2]; pH 3.0, 0 h, in the presence of air
  Percentage of tigecycline remaining: 100%
[2]; pH 3, 0 h, oxygen <1 ppm
  Total impurity content as a % of initial weight of tigecycline: 0.258%
  Total tigecycline epimer content as a % of initial weight of tigecycline: 0.152%
[2]; pH 3.0, 0 h, oxygen <1 ppm
  Percentage of tigecycline remaining: 100.0%
[2]; [4]
  Total impurity content as a % of initial weight of tigecycline: 0.907%
  Total tigecycline epimer content as a % of initial weight of tigecycline: 0.83%
[2]; pH 3.0, 8 h, in the presence of air
  Percentage of tigecycline remaining: 100%
[2]; pH 3, 8 h, oxygen <1 ppm
  Total impurity content as a % of initial weight of tigecycline: 0.628%
  Total tigecycline epimer content as a % of initial weight of tigecycline: 0.485%
[2]; pH 3.0, 8 h, oxygen <1 ppm
  Percentage of tigecycline remaining: 99.55%
[2]; [5]
  Total impurity content as a % of initial weight of tigecycline: 2.564%
  Total tigecycline epimer content as a % of initial weight of tigecycline: 2.27%
[2]; pH 3.0, 24 h, in the presence of air
  Percentage of tigecycline remaining: 98%
[2]; pH 3, 24 h, oxygen <1 ppm
  Total impurity content as a % of initial weight of tigecycline: 2.391%
  Total tigecycline epimer content as a % of initial weight of tigecycline: 2.267%
[2]; pH 3.0, 24 h, oxygen <1 ppm
  Percentage of tigecycline remaining: 98.08%
[2]; [6]
  Total impurity content as a % of initial weight of tigecycline: 8.3%
  Total tigecycline epimer content as a % of initial weight of tigecycline: 7.58%
[2]; pH 3.0, 72 h, in the presence of air
  Percentage of tigecycline remaining: 93%
[2]; pH 3, 72 h, oxygen <1 ppm
  Total impurity content as a % of initial weight of tigecycline: 7.853%
  Total tigecycline epimer content as a % of initial weight of tigecycline: 7.651%
[2]; pH 3.0, 72 h, oxygen <1 ppm
  Percentage of tigecycline remaining: 92.24%
[2]; [7]
  Percentage of tigecycline remaining: 100%
  Total impurity content as a % of initial weight of tigecycline: 0.35%
  Total tigecycline epimer content as a % of initial weight of tigecycline: 0.18%
[2]; pH 3.5, 0 h, oxygen <1 ppm
  Percentage of tigecycline remaining: 100.0%
  Total impurity content as a % of initial weight of tigecycline: 0.245%
  Total tigecycline epimer content as a % of initial weight of tigecycline: 0.133%
[2]; [8]
  Percentage of tigecycline remaining: 100%
  Total impurity content as a % of initial weight of tigecycline: 0.737%
  Total tigecycline epimer content as a % of initial weight of tigecycline: 0.47%
[2]; pH 3.5, 8 h, oxygen <1 ppm
  Percentage of tigecycline remaining: 100.19%
  Total impurity content as a % of initial weight of tigecycline: 0.559%
  Total tigecycline epimer content as a % of initial weight of tigecycline: 0.383%
[2]; [9]
  Percentage of tigecycline remaining: 100%
  Total impurity content as a % of initial weight of tigecycline: 1.727%
  Total tigecycline epimer content as a % of initial weight of tigecycline: 1.45%
[2]; pH 3.5, 24 h, oxygen <1 ppm
  Percentage of tigecycline remaining: 99.26%
  Total impurity content as a % of initial weight of tigecycline: 1.478%
  Total tigecycline epimer content as a % of initial weight of tigecycline: 1.351%
[2]; [10]
  Percentage of tigecycline remaining: 95%
  Total impurity content as a % of initial weight of tigecycline: 5.521%
  Total tigecycline epimer content as a % of initial weight of tigecycline: 4.83%
[2]; pH 3.5, 72 h, oxygen <1 ppm
  Percentage of tigecycline remaining: 96.03%
  Total impurity content as a % of initial weight of tigecycline: 4.913%
  Total tigecycline epimer content as a % of initial weight of tigecycline: 4.671%
[2]; [11]
  Percentage of tigecycline remaining: 100%
  Total impurity content as a % of initial weight of tigecycline: 0.32%
  Total tigecycline epimer content as a % of initial weight of tigecycline: 0.189%
[2]; [12]
  Percentage of tigecycline remaining: 100%
  Total impurity content as a % of initial weight of tigecycline: 1.06%
  Total tigecycline epimer content as a % of initial weight of tigecycline: 0.90%
[2]; [13]
  Percentage of tigecycline remaining: 98%
  Total impurity content as a % of initial weight of tigecycline: 3.129%
  Total tigecycline epimer content as a % of initial weight of tigecycline: 2.90%
[2]; [14]
  Percentage of tigecycline remaining: 100%
  Total impurity content as a % of initial weight of tigecycline: 0.30%
  Total tigecycline epimer content as a % of initial weight of tigecycline: 0.16%
[2]; pH 4.5, 0 h, oxygen <1 ppm
  Percentage of tigecycline remaining: 100.0%
  Total impurity content as a % of initial weight of tigecycline: 0.232%
  Total tigecycline epimer content as a % of initial weight of tigecycline: 0.116%
[2]; [15]
  Percentage of tigecycline remaining: 100%
  Total impurity content as a % of initial weight of tigecycline: 0.483%
  Total tigecycline epimer content as a % of initial weight of tigecycline: 0.30%
[2]; pH 4.5, 8 h, oxygen <1 ppm
  Percentage of tigecycline remaining: 99.69%
  Total impurity content as a % of initial weight of tigecycline: 0.368%
  Total tigecycline epimer content as a % of initial weight of tigecycline: 0.233%
[2]; [16]
  Percentage of tigecycline remaining: 99%
  Total impurity content as a % of initial weight of tigecycline: 0.75%
  Total tigecycline epimer content as a % of initial weight of tigecycline: 0.65%
[2]; pH 4.5, 24 h, oxygen <1 ppm
  Percentage of tigecycline remaining: 99.72%
  Total impurity content as a % of initial weight of tigecycline: 0.682%
  Total tigecycline epimer content as a % of initial weight of tigecycline: 0.547%
[2]; [17]
  Percentage of tigecycline remaining: 97%
  Total impurity content as a % of initial weight of tigecycline: 2.625%
  Total tigecycline epimer content as a % of initial weight of tigecycline: 1.95%
[2]; pH 4.5, 72 h, oxygen <1 ppm
  Percentage of tigecycline remaining: 98.50%
  Total impurity content as a % of initial weight of tigecycline: 2.365%
  Total tigecycline epimer content as a % of initial weight of tigecycline: 1.934%
[2]; [18]
  Percentage of tigecycline remaining: 100%
  Total impurity content as a % of initial weight of tigecycline: 0.29%
  Total tigecycline epimer content as a % of initial weight of tigecycline: 0.167%
[2]; [19]
  Percentage of tigecycline remaining: 101%
  Total impurity content as a % of initial weight of tigecycline: 0.691%
  Total tigecycline epimer content as a % of initial weight of tigecycline: 0.49%
[2]; [20]
  Percentage of tigecycline remaining: 99%
  Total impurity content as a % of initial weight of tigecycline: 2.632%
  Total tigecycline epimer content as a % of initial weight of tigecycline: 1.69%
[2]; [21]
  Percentage of tigecycline remaining: 100%
  Total impurity content as a % of initial weight of tigecycline: 0.31%
  Total tigecycline epimer content as a % of initial weight of tigecycline: 0.162%
[2]; [22]
  Percentage of tigecycline remaining: 99%
  Total impurity content as a % of initial weight of tigecycline: 0.865%
  Total tigecycline epimer content as a % of initial weight of tigecycline: 0.52%
[2]; [23]
  Percentage of tigecycline remaining: 97%
  Total impurity content as a % of initial weight of tigecycline: 3.221%
  Total tigecycline epimer content as a % of initial weight of tigecycline: 1.31%
[2]; [24]
  Percentage of tigecycline remaining: 100%
  Total impurity content as a % of initial weight of tigecycline: 0.31%
  Total tigecycline epimer content as a % of initial weight of tigecycline: 0.15%
[2]; pH 6.5, 0 h, oxygen <1 ppm
  Percentage of tigecycline remaining: 100.0%
  Total impurity content as a % of initial weight of tigecycline: 0.224%
  Total tigecycline epimer content as a % of initial weight of tigecycline: 0.111%
[2]; [25]
  Percentage of tigecycline remaining: 100%
  Total impurity content as a % of initial weight of tigecycline: 0.602%
  Total tigecycline epimer content as a % of initial weight of tigecycline: 0.26%
[2]; pH 6.5, 8 h, oxygen <1 ppm
  Percentage of tigecycline remaining: 100.56%
  Total impurity content as a % of initial weight of tigecycline: 0.399%
  Total tigecycline epimer content as a % of initial weight of tigecycline: 0.188%
[2]; [26]
  Percentage of tigecycline remaining: 100%
  Total impurity content as a % of initial weight of tigecycline: 1.429%
  Total tigecycline epimer content as a % of initial weight of tigecycline: 0.43%
[2]; pH 6.5, 24 h, oxygen <1 ppm
  Percentage of tigecycline remaining: 99.59%
  Total impurity content as a % of initial weight of tigecycline: 0.812%
  Total tigecycline epimer content as a % of initial weight of tigecycline: 0.45%
[2]; [27]
  Percentage of tigecycline remaining: 86%
  Total impurity content as a % of initial weight of tigecycline: 11.78%
  Total tigecycline epimer content as a % of initial weight of tigecycline: 1.08%
[2]; pH 6.5, 72 h, oxygen <1 ppm
  Percentage of tigecycline remaining: 98.03%
  Total impurity content as a % of initial weight of tigecycline: 2.654%
  Total tigecycline epimer content as a % of initial weight of tigecycline: 1.532%
[2]; [28]
  Percentage of tigecycline remaining: 100%
  Total impurity content as a % of initial weight of tigecycline: 0.30%
  Total tigecycline epimer content as a % of initial weight of tigecycline: 0.14%
[2]; pH 8.0, 0 h, oxygen <1 ppm
  Percentage of tigecycline remaining: 100.0%
  Total impurity content as a % of initial weight of tigecycline: 0.22%
  Total tigecycline epimer content as a % of initial weight of tigecycline: 0.107%
[2]; [29]
  Percentage of tigecycline remaining: 100%
  Total impurity content as a % of initial weight of tigecycline: 0.924%
  Total tigecycline epimer content as a % of initial weight of tigecycline: 0.27%
[2]; pH 8.0, 8 h, oxygen <1 ppm
  Percentage of tigecycline remaining: 100.81%
  Total impurity content as a % of initial weight of tigecycline: 0.443%
  Total tigecycline epimer content as a % of initial weight of tigecycline: 0.192%
[2]; [30]
  Percentage of tigecycline remaining: 95%
  Total impurity content as a % of initial weight of tigecycline: 3.737%
  Total tigecycline epimer content as a % of initial weight of tigecycline: 0.43%
[2]; pH 8.0, 24 h, oxygen <1 ppm
  Percentage of tigecycline remaining: 99.64%
  Total impurity content as a % of initial weight of tigecycline: 1.214%
  Total tigecycline epimer content as a % of initial weight of tigecycline: 0.425%
[2]; [31]
  Percentage of tigecycline remaining: 57%
  Total impurity content as a % of initial weight of tigecycline: 29.654%
  Total tigecycline epimer content as a % of initial weight of tigecycline: 1.23%
[2]; pH 8.0, 72 h, oxygen <1 ppm
  Percentage of tigecycline remaining: 95.98%
  Total impurity content as a % of initial weight of tigecycline: 3.461%
  Total tigecycline epimer content as a % of initial weight of tigecycline: 1.516%
